Experimental data published in PubChem BioAssay AID256 (DTP/NCI, 2004).
Inconclusive results and toxic doses are left out.

Tested on: CD2F1 mice, L1210 leukemia ip, survival T/C
Assay: NCI In Vivo Anticancer Drug Screen. Data for tumor model L1210 Leukemia (intraperitoneal) in CD2F1 (CDF1) mice
Settings: higher = longer survival
Procedure, shortened: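 Tumor-bearing mice (transplanted tumor) were split into treated and vehicle control groups, and the measured endpoint of each treated group was divided by that of its vehicle controls.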

[1] = endpoint: mean survival time, dose: 6.25 mg/kg/injection, schedule: Q04DX003 (ip), vehicle: saline with Tween-80
[2] = endpoint: mean survival time, dose: 12.5 mg/kg/injection, schedule: Q04DX003 (ip), vehicle: saline with Tween-80
[3] = endpoint: mean survival time, dose: 25.0 mg/kg/injection, schedule: Q04DX003 (ip), vehicle: saline with Tween-80

Structure (SMILES): C(=N/N=C/c1ccsc1)/c1ccsc1
- T/C (endpoint: median survival time, dose: 50.0 mg/kg/injection, schedule: Q04DX002 (ip), vehicle: saline with Tween-80): 90 % of control
- T/C (endpoint: median survival time, dose: 100.0 mg/kg/injection, schedule: Q04DX002 (ip), vehicle: saline with Tween-80): 90 % of control
- T/C (endpoint: median survival time, dose: 200.0 mg/kg/injection, schedule: Q04DX002 (ip), vehicle: saline with Tween-80): 90 % of control
- T/C (endpoint: median survival time, dose: 400.0 mg/kg/injection, schedule: Q04DX002 (ip), vehicle: saline with Tween-80): 90 % of control

Structure (SMILES): CCCCCCCCCCCCCCCCCCN (tested in a mixture with another compound)
- T/C (endpoint: mean survival time, dose: 100.0 mg/kg/injection, schedule: Q04DX002 (ip), vehicle: saline with Tween-80): 98 % of control
- T/C (endpoint: mean survival time, dose: 200.0 mg/kg/injection, schedule: Q04DX002 (ip), vehicle: saline with Tween-80): 98 % of control

Structure (SMILES): CCCN1COC(OCC)C(C)(C)C1 (stereo not drawn)
- T/C (endpoint: mean survival time, dose: 12.5 mg/kg/injection, schedule: Q01DX009 (ip), vehicle: saline with Tween-80): 112 % of control
- T/C (endpoint: mean survival time, dose: 12.5 mg/kg/injection, schedule: Q01DX009 (ip), vehicle: saline): 91 % of control
- T/C (endpoint: mean survival time, dose: 25.0 mg/kg/injection, schedule: Q01DX009 (ip), vehicle: saline with Tween-80): 100 % of control
- T/C (endpoint: mean survival time, dose: 25.0 mg/kg/injection, schedule: Q01DX009 (ip), vehicle: saline): 100 % of control
- T/C (endpoint: mean survival time, dose: 50.0 mg/kg/injection, schedule: Q01DX009 (ip), vehicle: saline with Tween-80): 107 % of control
- T/C (endpoint: mean survival time, dose: 50.0 mg/kg/injection, schedule: Q01DX009 (ip), vehicle: saline): 103 % of control
- T/C (endpoint: mean survival time, dose: 100.0 mg/kg/injection, schedule: Q01DX009 (ip), vehicle: saline with Tween-80): 114 % of control
- T/C (endpoint: mean survival time, dose: 100.0 mg/kg/injection, schedule: Q01DX009 (ip), vehicle: saline): 97 % of control
- T/C (endpoint: mean survival time, dose: 200.0 mg/kg/injection, schedule: Q01DX009 (ip), vehicle: saline with Tween-80): 106 % of control
- T/C (endpoint: mean survival time, dose: 200.0 mg/kg/injection, schedule: Q01DX009 (ip), vehicle: saline): 109 % of control

Structure (SMILES): CCOC(=O)C[P+](c1ccccc1)(c1ccccc1)c1ccccc1
- T/C (endpoint: mean survival time, dose: 3.13 mg/kg/injection, schedule: Q01DX009 (ip), vehicle: saline sonified): 93 % of control
- T/C (endpoint: mean survival time, dose: 3.13 mg/kg/injection, schedule: Q04DX003 (ip), vehicle: saline with Tween-80): 98 % of control
- T/C (endpoint: mean survival time, dose: 6.25 mg/kg/injection, schedule: Q01DX009 (ip), vehicle: saline sonified): 94 % of control
- T/C [1]: 98 % of control
- T/C (endpoint: mean survival time, dose: 12.5 mg/kg/injection, schedule: Q01DX009 (ip), vehicle: saline sonified): 93 % of control
- T/C [2]: 98 % of control
- T/C (endpoint: mean survival time, dose: 25.0 mg/kg/injection, schedule: Q01DX009 (ip), vehicle: saline sonified): 93 % of control
- T/C [3]: 95 % of control

Structure (SMILES): CCCCCCCCCCCCn1cnc2c(Cl)ncnc21
- T/C (endpoint: mean survival time, dose: 12.5 mg/kg/injection, schedule: Q01DX005 (ip), vehicle: other): 102 % of control
- T/C (endpoint: mean survival time, dose: 25.0 mg/kg/injection, schedule: Q01DX005 (ip), vehicle: other): 96 % of control
- T/C (endpoint: mean survival time, dose: 50.0 mg/kg/injection, schedule: Q01DX005 (ip), vehicle: other): 100 % of control
- T/C (endpoint: mean survival time, dose: 100.0 mg/kg/injection, schedule: Q01DX005 (ip), vehicle: other): 94 % of control
- T/C (endpoint: mean survival time, dose: 200.0 mg/kg/injection, schedule: Q01DX005 (ip), vehicle: other): 100 % of control

Structure (SMILES): CCN(CCNc1ccc(C)c2sc3ccccc3c(=O)c12)CC(C)(C)O
- T/C (endpoint: mean survival time, dose: 200.0 mg/kg/injection, schedule: Q01DX001 (ip), vehicle: saline): 112 % of control
- T/C (endpoint: mean survival time, dose: 400.0 mg/kg/injection, schedule: Q04DX003 (ip), vehicle: saline): 174 % of control

Structure (SMILES): C/C=C(\C)C(=O)O[C@@H]1c2cc3c(cc2-c2c(cc(OC)c(OC)c2OC)[C@@H]2C(=O)OC[C@@H]12)OCO3
- T/C (endpoint: mean survival time, dose: 1.25 mg/kg/injection, schedule: Q01DX009 (ip), vehicle: Klucel (hydroxypropylcellulose) (HPC)): 112 % of control
- T/C (endpoint: mean survival time, dose: 2.5 mg/kg/injection, schedule: Q01DX009 (ip), vehicle: Klucel (hydroxypropylcellulose) (HPC)): 106 % of control
- T/C (endpoint: mean survival time, dose: 5.0 mg/kg/injection, schedule: Q01DX009 (ip), vehicle: Klucel (hydroxypropylcellulose) (HPC)): 106 % of control
- T/C (endpoint: mean survival time, dose: 10.0 mg/kg/injection, schedule: Q01DX009 (ip), vehicle: Klucel (hydroxypropylcellulose) (HPC)): 95 % of control

Structure (SMILES): O=[As](O)(O)c1ccccc1[As](=O)(O)O
- T/C [1]: 101 % of control
- T/C [2]: 101 % of control
- T/C [3]: 100 % of control
